In patent US11000511B2, “Chemical compounds as antibiotics” (priority 2017, dated 2021):

Assays:
[1] = target: T1, purified LasB protein from P. aeruginosa (Pseudomonas aeruginosa, UniProt P14756); test: Fluorometric assay to determine Ki (Assay 1); format: biochemical; details: Ki (μM) Assay 1, purified LasB, substrate Abz-Ala-Gly-Leu-Ala-p-Nitro-Benzyl-Amide 250 μM, Ki calculated from IC50; inhibitor 0.006 to 200 μM
T1 construct: purchased Merck or Charles River Laboratories
Method: (§1) Experiments were therefore conducted (1) to measure the potency of inhibition of compounds of the invention against purified Pseudomonas aeruginosa LasB enzyme and also experiments were conducted (2) to measure the ability of compounds of the invention to inhibit LasB-catalysed elastin degradation. The first assay uses a commercial fluorescent synthetic peptide and purified LasB enzyme. The LasB hydrolysis kinetics are measured allowing the determination of the IC50 and Ki of the inhibitors; the second is a more physiological assay using dialysed Pseudomonas aeruginosa supernatant as source of enzyme, plus its natural substrate Elastin. It is an “end point assay” that determines the percentage of LasB inhibition by each compound for one particular time point and inhibitor concentration. Technical details are described below:
This assay uses commercially available substrate (Abz-Ala-Gly-Leu-Ala-p-Nitro-Benzyl-Amide (Ex: 340 nm, Em: 415 nm) from Peptide International) and purified LasB protein from P. aeruginosa (provided by Merck or Charles River Laboratories). It is performed to determine LasB elastase activity and assess compound inhibition in 96-well plate format. Some compounds of Formula (I) were assessed using the method of Assay 1 (described below). Other compounds of Formula (I) were assessed using the alternative but equivalent method of Assay 2 (described below).
Method: 10 to 140 ng/ml purified LasB is incubated with 250 μM Abz-Ala-Gly-Leu-Ala-p-Nitro-Benzyl-Amide in 50 mM Tris-HCl pH 7.4, 2.5 mM CaCl2), 0.01% of Triton X100 at 37° C. LasB activity (corresponding to fluorescence emission induced by substrate hydrolysis) is measured over 30 min at 37° C. with a fluorescence plate reader such as the Perkin Elmer Envision or similar. Different range of inhibitor concentrations are routinely assessed depending of inhibitor potency from 0.006 to 200 μM (Assay 1; 2-fold dilutions series) or from 0.0016 to 200 μM (Assay 2; 2-fold dilutions series) in order to determine IC50.
The equation used to calculate the Ki from IC50 is: Ki=IC50/(1+([S]/Km)) where [S]=250 μM and Km=214 μM.

[2] = target: T2, LasB elastase activity in dialysed supernatant from P. aeruginosa strain PA01 (Pseudomonas aeruginosa, UniProt P14756); test: Elastin Congo Red assay to determine % inhibition (Assay 1); format: biochemical; details: read-out: Elastin hydrolysis % inhibition @ 50/25 μM inhibitor concentration Assay 1
T2 construct: uses as source of enzyme dialysed supernatant from P. aeruginosa; endogenous in cells; host or cells: P. aeruginosa strain PA01 culture supernatant, filtered and dialysed
T2 sequence (P14756 198-498): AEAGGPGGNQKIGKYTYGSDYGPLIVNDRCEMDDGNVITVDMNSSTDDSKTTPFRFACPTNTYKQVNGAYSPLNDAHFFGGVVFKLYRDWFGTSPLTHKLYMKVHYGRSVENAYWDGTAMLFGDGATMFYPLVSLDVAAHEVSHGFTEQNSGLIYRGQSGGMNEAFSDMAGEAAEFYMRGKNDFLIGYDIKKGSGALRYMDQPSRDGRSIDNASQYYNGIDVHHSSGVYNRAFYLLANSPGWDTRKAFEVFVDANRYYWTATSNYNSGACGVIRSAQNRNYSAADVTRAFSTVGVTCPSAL
Method: as §1
The Elastin assay uses as source of enzyme dialysed supernatant from P. aeruginosa and the elastin congo red as substrate. The natural LasB substrate, elastin, is complexed with the congo red dye (Elastin Congo Red, ECR). The elastolysis activity from the culture supernatant will degrade elastin and release the congo red dye into the supernatant. This red dye release can be measured with a spectrophotometer. Some compounds of Formula (I) were assessed using the method of Assay 1 (described below). Other compounds of Formula (I) were assessed using the alternative but equivalent method of Assay 2 (described below).
Method (Assay 1): To determine LasB elastase activity and assess compound inhibition, an overnight culture of P. aeruginosa strain PA01 is diluted thousand-fold in LB medium. This diluted solution is incubated during 19 hours in a shaking incubator. Culture supernatants are recovered by centrifugation and filtrated through a […] filter. These supernatants are dialysed (filtration molecules <20 kDa) into a 50 mM Tris pH 7.4, 2.5 mM CaCl2 solution at 4° C. under agitation for 24 hours. Supernatant dialysed is then mixed volume/volume with the ECR suspension (20 mg/mL of ECR in 100 mM Tris buffer supplemented with 1 mM CaCl2) supplemented with TritonX 100 (final concentration of 0.01%) in presence of different concentrations of compound (routinely 50 and 25 μM). The mixed reaction is then incubated for 24 hours in a 37° shaking incubator. As a negative control, the mixed supernatant is replaced by Tris solution (50 mM Tris pH 7.4, 2.5 mM CaCl2). The reaction supernatant is recovered by centrifugation and the release of congo red is measured by its absorbance at OD520. Percentage inhibition is determined using the following equation: (OD520 value of DMSO SN−OD520 value of LB)−(OD520 value of Compound SN−OD520 value of LB)/(OD520 value of DMSO SN−OD520 value of LB)×100.

T1 sequence (P14756 198-498): as above

Row | Structure (SMILES) | Ki [1] [µM] | inhibition at 50 µM [2] [%]
1 | C[N+](C)(C)CCCc1ccc2nc(CNC(=O)C3(CC(=O)O)Cc4ccccc4C3)sc2c1 [Example 37, 3-[2-[[[2-(carboxymethyl)indane-2-carbonyl]amino]methyl]-1,3-benzothiazol-6-yl]propyl-trimethyl-ammonium] | 0.3 to 2 | > 60
2 | C[N+](C)(C)CCCc1ccc2sc(CNC(=O)C3(CC(=O)[O-])Cc4ccccc4C3)nc2c1 [Example 90, 2-[2-[[5-[3-(trimethylammonio)propyl]-1,3-benzothiazol-2-yl]methylcarbamoyl]indan-2-yl]acetate] | 0.3 to 2 | > 60
3 | C[N+]1(C)CCN(c2ccc3nc(CNC(=O)C4(CC(=O)O)Cc5ccccc5C4)sc3c2)CC1 [Example 43, 2-[2-[[6-(4,4-dimethylpiperazin-4-ium-1-yl)-1,3-benzothiazol-2-yl]methylcarbamoyl]indan-2-yl]acetic acid] | 0.3 to 2 | 30 to 60
4 | CN(C)CCNc1ccc2sc(CNC(=O)C3(CC(=O)O)Cc4ccccc4C3)nc2c1 [Example 76, 2-[2-[[5-[2-(dimethylamino)ethylamino]-1,3-benzothiazol-2-yl]methylcarbamoyl]indan-2-yl]acetic acid] | 0.3 to 2 | > 60
5 | O=C(O)CC1(C(=O)NCc2nc3c(F)cccc3s2)Cc2ccccc2C1 [Example 60, 2-(2-(((4-fluorobenzo[d]thiazol-2-yl)methyl)carbamoyl)-2,3-dihydro-1H-inden-2-yl)acetic acid] | < 0.3 | > 60
6 | O=C(O)CC1(C(=O)NCc2cc3cc(Br)ccc3o2)Cc2ccccc2C1 [Example 18, 2-[2-[(5-bromobenzofuran-2-yl)methylcarbamoyl]indan-2-yl]acetic acid] | < 0.3 | > 60
7 | O=C(O)CC1(C(=O)NCCc2nc3ccccc3[nH]2)Cc2ccccc2C1 [Example 12, 2-[2-[2-(1H-benzimidazol-2-yl)ethylcarbamoyl]indan-2-yl]acetic acid] | 2 to 10 | 15 to 30
8 | O=C(O)CC1(C(=O)NCc2cc3ccccc3o2)Cc2ccccc2C1 [Example 5, 2-(2-{[(1-Benzofuran-2-yl)methyl]carbamoyl}-2,3-dihydro-1H-inden-2-yl)acetic acid] | 0.3 to 2 | 30 to 60
9 | O=C(O)CC1(C(=O)NCc2cc3ccccc3s2)Cc2ccccc2C1 [Example 23, 2-[2-(benzothiophen-2-ylmethylcarbamoyl)indan-2-yl]acetic acid] | < 0.3 | 30 to 60
10 | N[C@@H]1CCN(c2ccc3nc(CNC(=O)C4(CC(=O)O)Cc5ccccc5C4)sc3c2)C1 [Example 102, 2-[2-[[6-[(3R)-3-aminopyrrolidin-1-yl]-1,3-benzothiazol-2-yl]methylcarbamoyl]indan-2-yl]acetic acid] | < 0.3 | > 60
11 | CN1CCC(OC(=O)[C@H](Cc2c[nH]c3ccccc23)NC(=O)C2(CC(=O)O)Cc3ccccc3C2)CC1 [Example 45, 2-(2-{[(2S)-3-(1H-indol-3-yl)-1-[(1-methylpiperidin-4-yl)oxy]-1-oxopropan-2-yl]carbamoyl}-2,3-dihydro-1H-inden-2-yl)acetic acid] | < 0.3 | > 60
12 | O=C(O)CC1(C(=O)NCc2nc3c(N4CCOCC4)cccc3s2)Cc2ccccc2C1 [Example 66, 2-(2-(((4-morpholinobenzo[d]thiazol-2-yl)methyl)carbamoyl)-2,3-dihydro-1H-inden-2-yl)acetic acid] | 0.3 to 2 | > 60
13 | C[N+](C)(C)C[C@H]1C[C@H](c2ccc3nc(CNC(=O)C4(CC(=O)[O-])Cc5ccccc5C4)sc3c2)C1 [Example 92, 2-[2-[[6-[(1r,3r)-3-[(trimethylammonio)methyl]cyclobutyl]-1,3-benzothiazol-2-yl]methylcarbamoyl]indan-2-yl]acetate] | 0.3 to 2 | > 60
14 | C[N+]1(C)CCC(OC(=O)[C@H](Cc2c[nH]c3ccccc23)NC(=O)C2(CC(=O)O)Cc3ccccc3C2)CC1 [Example 116, (S)-2-(2-((1-((1,1-dimethylpiperidin-1-ium-4-yl)oxy)-3-(1H-indol-3-yl)-1-oxopropan-2-yl)carbamoyl)-2,3-dihydro-1H-inden-2-yl)acetate] | 0.3 to 2 | > 60
15 | O=C(O)CC1(C(=O)NCCc2nc3ccccc3s2)Cc2ccccc2C1 [Example 22, 2-[2-[2-(1,3-benzothiazol-2-yl)ethylcarbamoyl]indan-2-yl]acetic acid] | 2 to 10 | 15 to 30
16 | NC1CN(c2ccc3sc(CNC(=O)C4(CC(=O)O)Cc5ccccc5C4)nc3c2)C1 [Example 73, 2-[2-[[5-(3-aminoazetidin-1-yl)-1,3-benzothiazol-2-yl]methylcarbamoyl]indan-2-yl]acetic acid] | < 0.3 | > 60
17 | CC(C)(C)OC(=O)[C@H](Cc1c[nH]c2ccccc12)NC(=O)C1(CC(=O)O)Cc2ccccc2C1 [Example 47, (S)-2-(2-((1-(tert-butoxy)-3-(1H-indol-3-yl)-1-oxopropan-2-yl)carbamoyl)-2,3-dihydro-1H-inden-2-yl)acetic acid] | < 0.3 | > 60
18 | CN1CCc2nc(CNC(=O)C3(CC(=O)O)Cc4ccccc4C3)sc2C1 [Example 129, 2-[2-[(5-methyl-6,7-dihydro-4H-thiazolo[5,4-c]pyridin-2-yl)methylcarbamoyl]indan-2-yl]acetic acid] | 0.3 to 2 | 30 to 60
19 | CN(C)CCCc1ccc2sc(CNC(=O)C3(CC(=O)O)Cc4ccccc4C3)nc2c1 [Example 89, 2-[2-[[5-[3-(dimethylamino)propyl]-1,3-benzothiazol-2-yl]methylcarbamoyl]indan-2-yl]acetic acid] | 0.3 to 2 | > 60
20 | O=C(O)CC1(C(=O)NCc2ccccc2)Cc2ccccc2C1 [Example 16, 2-[2-(benzylcarbamoyl)indan-2-yl]acetic acid] | 2 to 10 | 30 to 60
21 | C[N+](C)(C)CCOc1ccc2nc(CNC(=O)C3(CC(=O)[O-])Cc4ccccc4C3)sc2c1 [Example 111, 2-[2-[[6-[2-(trimethylammonio)ethoxy]-1,3-benzothiazol-2-yl]methylcarbamoyl]indan-2-yl]acetate] | 0.3 to 2 | 30 to 60
22 | COc1ccc2nc(CNC(=O)C3(CC(=O)O)Cc4ccccc4C3)sc2c1 [Example 32, 2-[2-[(6-methoxy-1,3-benzothiazol-2-yl)methylcarbamoyl]indan-2-yl]acetic acid] | < 0.3 | > 60
23 | O=C(O)CC1(C(=O)NCCc2cc3ccccc3s2)Cc2ccccc2C1 [Example 30, 2-[2-[2-(benzothiophen-2-yl)ethylcarbamoyl]indan-2-yl]acetic acid] | 2 to 10 | 15 to 30
24 | O=C(O)CC1(C(=O)NCc2nc3ccc(N4CCNCC4)cc3s2)Cc2ccccc2C1 [Example 41, 2-[2-[(6-piperazin-1-yl-1,3-benzothiazol-2-yl)methylcarbamoyl]indan-2-yl]acetic acid] | 0.3 to 2 | 30 to 60
